Reference: PubChem BioAssay (NCI)
Several values for one entry are separate records, joined by “and”; a condition that tells them apart may be missing. Equal values may be shown once.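 A five-concentration, 48-hour dose response in 96-well plates underlies each endpoint, interpolated linearly between surrounding concentrations. At the GI50, growth is halved. TGI denotes the concentration required for complete inhibition of growth.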

What was measured:
Experiment in all cases: NCI anticancer screen, dose series, 48 h
SF-268 CNS = tested on: SF-268 CNS
PC-3 prostate = tested on: PC-3 prostate
A549 NSCLC = tested on: A549 NSCLC
SK-MEL-28 melanoma = tested on: SK-MEL-28 melanoma
NCI-H522 lung = tested on: NCI-H522 lung
IGROV1 ovarian = tested on: IGROV1 ovarian
CCRF-CEM leukemia = tested on: CCRF-CEM leukemia
A498 renal = tested on: A498 renal
UO-31 renal = tested on: UO-31 renal
MALME-3M melanoma = tested on: MALME-3M melanoma

Compound	TGI (SF-268 CNS)	TGI (PC-3 prostate)	TGI (A549 NSCLC)	TGI (SK-MEL-28 melanoma)	TGI (NCI-H522 lung)	TGI (IGROV1 ovarian)	TGI (CCRF-CEM leukemia)	TGI (A498 renal)	TGI (UO-31 renal)	TGI (MALME-3M melanoma)	GI50 (SF-268 CNS)	GI50 (PC-3 prostate)	GI50 (A549 NSCLC)	GI50 (SK-MEL-28 melanoma)	GI50 (NCI-H522 lung)	GI50 (IGROV1 ovarian)	GI50 (CCRF-CEM leukemia)	GI50 (A498 renal)	GI50 (UO-31 renal)	GI50 (MALME-3M melanoma)
CCS(=O)(=O)c1c2cc(OC)ccc2nc2ccc(OC)cc12	> 100 µM	> 100 µM	> 100 µM	> 100 µM	> 100 µM	> 100 µM	> 100 µM	> 100 µM	> 100 µM	> 100 µM										
Cc1cc(N=C2C=C(Nc3cc(C)on3)C(=O)c3ccccc32)no1	> 100 µM	> 100 µM	> 100 µM	> 100 µM	> 100 µM	> 78.1 µM	> 100 µM	> 100 µM	> 100 µM	53 µM										
COc1ccc2c(c1)-c1nn(CCN(C)C)c3ccc(C(=O)NCCCN(C)CCCNC(=O)c4ccc5c6c(nn5CCN(C)C)-c5cc(OC)ccc5Nc46)c(c13)N2	2.46 µM	1.09 µM	1.17 µM	0.48 µM	0.273 µM	1.47 µM	0.141 µM	0.633 µM	4.41 µM	0.762 µM										
CCOc1cc(C2SCC(=O)N2c2nc3cc4sc(N5C(=O)CSC5c5ccc(O)c(OCC)c5)nc4cc3s2)ccc1O (stereo not drawn)	> 100 µM	> 100 µM	> 100 µM	> 100 µM	> 100 µM	> 100 µM	> 84.2 µM	> 100 µM	> 100 µM	> 100 µM										
CN(C)CCn1c(=O)c2ccc3c4c(nn3CCN(C)C)c3ccccc3n(c1=O)c24	5.12 µM	3.21 µM	4.38 µM	6.46 µM	0.329 µM	1.92 µM	10.9 µM	1.34 µM	2.42 µM	2.13 µM										
NCCCCNC1(c2cc3ccccc3s2)CCCCC1	13.5 µM	17.3 µM	20.5 µM	3.81 µM	6.19 µM	13.1 µM	5.44 µM	6.04 µM	9.94 µM	4.01 µM										
C#CCOC(=O)C(N)CCCN=C(N)N (stereo not drawn)	> 100 µM	> 100 µM	> 100 µM	> 100 µM	> 100 µM	> 100 µM	> 100 µM	> 100 µM	> 100 µM	> 100 µM										
O=C1C(N=Nc2ccc(-c3nc4ccccc4[nH]3)cc2)NC(=S)N1c1ccccc1 (stereo not drawn)	> 100 µM	> 100 µM	> 100 µM	> 100 µM	> 100 µM	> 100 µM	56 µM	> 100 µM	> 100 µM	> 100 µM										
CC(C)C1=CC23CCC4C(C)(C(=O)O)CCCC4(C)C2CC1C(C(=O)O)C3C(=O)O (stereo not drawn)	> 100 µM	> 100 µM	> 100 µM	> 100 µM	> 100 µM	> 100 µM	> 100 µM	> 100 µM	> 100 µM	> 100 µM										
CC(C)C(C/C=C1\CC(CO)(COC(=O)CC(C(C)C)C(C)C)OC1=O)C(C)C (stereo not drawn)	27.6 µM	24.6 µM	18.8 µM	29.3 µM	27.6 µM	28.1 µM	36.2 µM	25.5 µM	20 µM	14.5 µM										
COc1cc(/C=C/C(=O)OC[C@H](Br)[C@H](OC(C)=O)c2ccc3c(c2)OCO3)cc(OC)c1OC	> 100 µM	> 100 µM	> 100 µM	> 100 µM	> 100 µM	> 100 µM	> 100 µM	> 100 µM	> 100 µM	> 100 µM										
COc1ccc(C2=CN3CCC[C@H]3C=C2c2cc(O)c(OC)c(OC)c2)cc1OC	0.112 µM	0.0538 µM	0.274 µM and 0.172 µM	0.101 µM and 0.0107 µM	0.026 µM	0.3 µM and 0.0857 µM	0.235 µM	0.0269 µM and 0.062 µM	0.0905 µM and 0.0233 µM	0.0333 µM										
Cc1n(CC(=O)c2ccccc2)nc2sc(N)n[n+]12	> 100 µM	> 100 µM	> 100 µM	> 100 µM	> 100 µM	> 100 µM	> 100 µM	> 100 µM	> 100 µM	> 100 µM										
C/C(N=Nc1nc2ccccc2o1)=C1/C=CC=CN1O	> 100 µM	> 100 µM	> 100 µM	> 100 µM	26.7 µM	> 100 µM	> 100 µM	> 100 µM	> 100 µM	12.2 µM										
CCCCCCCCC/C=C1\CC(CO)(COC(=O)c2ccccc2)OC1=O (stereo not drawn)	54 µM	34.7 µM	52.9 µM	31.8 µM	33.4 µM	70.4 µM	> 100 µM	58.3 µM	32.8 µM	39.5 µM										
N#Cc1c(N2CCN(c3ccc([N+](=O)[O-])cc3)CC2)[n+](=O)c2ccc(Cl)cc2n1[O-]	10.9 µM	> 36.2 µM	> 24.4 µM	> 39.2 µM	2.36 µM	2.01 µM	4.2 µM	2.44 µM	5.75 µM	6.31 µM										
O=[N+]([O-])c1ccc(Cl)cc1C=NC12CC3CC(CC(C3)C1)C2	> 100 µM	> 100 µM	> 100 µM	> 100 µM	> 100 µM	> 100 µM	35.6 µM	> 100 µM	> 100 µM	> 94 µM										
Nc1nc2cc(CNc3ccc(C(=O)NC(CCC(=O)O)C(=O)O)cc3)ccc2nc1-c1ccccc1 (stereo not drawn)	> 10 µM	> 10 µM	> 10 µM	> 10 µM	> 10 µM	> 10 µM	> 10 µM	> 10 µM	> 10 µM	> 10 µM										
CC(=O)OCC1OC(c2nnc(C)o2)=CC(OC(C)=O)C1OC(C)=O (stereo not drawn)	> 100 µM	> 100 µM	> 100 µM	> 100 µM	> 100 µM	> 100 µM	> 100 µM	> 100 µM	> 100 µM	> 100 µM										
CC(=O)NC1=C(C)C(=O)c2c(nc3n2CC[C@H]3OC(C)=O)C1=O	10.7 µM	1.99 µM	24.8 µM	5.16 µM	3.73 µM	8.71 µM	> 100 µM	30.5 µM	6.78 µM	3.14 µM										
CC(C)(C)c1cc(C2COC(=O)COCC(=O)OCCOCCOCCO2)cc(C(C)(C)C)c1O (stereo not drawn)	41.3 µM	> 100 µM	> 31.6 µM	38.9 µM	> 100 µM	> 100 µM	> 100 µM	> 91.9 µM	35.7 µM	> 100 µM										
CC(=O)NC1=CC(=O)c2cc(C)cc(O)c2C1=O	22.6 µM	40.7 µM	19 µM	1.54 µM	20.2 µM	26.4 µM	12.9 µM	27.5 µM	20 µM	4.33 µM										
CC(C)CCC[C@@H](C)[C@H]1CCC2C3=CCC4C(=O)C=CC(=O)C4C3CC[C@@]21C (stereo partly drawn)	> 100 µM			> 100 µM	> 100 µM	0.719 µM	> 100 µM	1.14 µM	0.359 µM	2 µM	566 nM	101 nM	83.6 nM	449 nM	803 nM	260 nM	179 nM	301 nM	72.1 nM	399 nM
CN(C)CCOC1(CC2CCCCC2)CCC(C(C)(C)C)CC1 (stereo not drawn)	25.4 µM	13.2 µM	17.6 µM	12.3 µM	8.49 µM	22.2 µM	7.62 µM	12.9 µM	15.6 µM	6.65 µM										
Cc1cccc2c1C/C(=C\c1cccc(C)c1C(=O)O)C2=O	> 100 µM	> 100 µM	> 100 µM	> 100 µM	> 100 µM	> 100 µM	> 100 µM	> 100 µM	> 100 µM	> 100 µM										
Cc1cc([N+](=O)[O-])ccc1N=NC(=O)NNc1ccc([N+](=O)[O-])cc1C	40.9 µM	26.6 µM	31.5 µM	29.9 µM	51.7 µM	33.8 µM	41.7 µM	27.2 µM	25.2 µM	37 µM										
